# Results published in patent US5631275A, “Substituted benzenesulfonylureas and -thioureas, preparation processes and possible uses of pharmaceutical preparations based on these compounds” (Hoechst Aktiengesellschaft, priority 1993, dated 1997).
# Legend:
# [1] = test system: RINm5F cells; test: Membrane potential on isolated β cells (RINm5F cells, whole cell patch clamp); type: cell-based; conditions: 10^-5 mol per liter, diazoxide (100 μmol) in bath, 34°±1° C., n = 6
# Protocol: The action mechanism of hypoglycemic sulfonylureas is clarified in rough outlines. The β cells of the pancreas are the target organ, where increased secretion of the hypoglycemic hormone insulin occurs. The release of insulin is controlled by the cell membrane potential. Glihenclamide causes depolarization of the cell membrane, which promotes insulin release via an increased in-flow of calcium ions. The extent of this depolarization of the cell membrane ΔU was determined on RINm5F cells, a pancreas tumor cell line, for some of the compounds according to the invention. The action strength of a compound in this model predicts the extent of the hypoglycemic potential of this compound.
# RINm5F cells were cultured at 37° C. in RPMI 1640 culture medium (flow), to which 11 mmol of glucose, 10% (volume/volume) of fetal calf serum, 2 mmol of glutamine and 50 μg/ml of gentamycin were added. For the studies, the cells were isolated by incubation (about 3 minutes) in a Ca^2+ -free medium containing 0.25% of trypsin and stored on ice.
# Isolated RINm5F cells were introduced into a Plexiglas chamber on an inverse microscope fitted with a differential interference contrast lens. […] The cell potential was recorded in this whole cell configuration with the aid of a patch clamp amplifier (L/M EPC 7) and was measured by applying a potential ramp to the whole cell current. […]
# [2] = test system: papillary muscle of the guineapig; test: Action potential duration on the papillary muscle of the guineapig; type: cell-based; conditions: test substance 2.2×10^-5 mol per liter, 30 minutes after the addition, control without test substance <40; for APD95 -HOE 234: action potential shortened by 1 μM rilmakalim (Hoe 234); for APD95 -DEO: action potential shortened by 2-deoxyglucose (DEO)
# Excerpt: ATP deficiency states such as are observed during ischemia in the cardiac muscle cell lead to a shortening of the duration of action potential. They are one of the causes of so-called reentry arrhythmias, which can cause sudden cardiac death. Opening of ATP-sensitive K channels by the reduction in ATP is a cause of this.
# A standard microelectrode technique is used for measurement of the action potential. For this, guineapigs of both sexes are sacrificed by a blow to the head, the hearts are removed and the papillary muscles are separated out and suspended in an organ bath. The organ bath is flushed with Ringer solution (0.9% NaCl, 0.048% KCl, 0.024% CaCl2, 0.02% NaHCO3 and 0.1% glucose) and gassed with a mixture of 95% oxygen and 5% carbon dioxide at a temperature of 36° C. The muscle is stimulated via an electrode with rectangular pulses of 1 V and 1 ms duration and a frequency of 2 Hz. The action potential is conducted and recorded through a glass microelectrode, which is punctured intracellularly and filled with […] solution. The substances to be tested were added to the Ringer solution in a concentration of 2.2×10^-5 mol per liter. The action potential is shown in amplified form on an oscilloscope using a Hugo Sachs amplifier. The duration of the action potential is determined at a repolarization degree of 95% (APD95). Shortenings in action potential are caused either by addition of a 1 μM strength solution of the potassium channel opener rilmakalim (Hoe 234) [W. Linz, E. Klaus, U. Albus, R. H. A. Becker, D. Mania, H. C. Englert, B. A. Scholkens Arzneimittelforschung/Drug Research, Volume 42 (II), 1992, pages 1180-1185] or by addition of 2-deoxyglucose (DEO). ATP deficiency states are caused in experimental physiology by 2-deoxyglucose by blockade of glucose metabolism. The action potential-shortening effect of these substances was prevented or reduced by the simultaneous dose of the test substances. The test substances were added to the bath solution as stock solutions in propanediol. The values stated relate to measurements 30 minutes after the addition. The APD95 in the presence of DEO or HOE 234 and in the absence of the test substance serves as a control.
SMILES,ΔU (depolarization of the cell membrane) [1] [mV],APD95 -HOE 234 [2] [ms],APD95 -DEO [2] [ms]
"CCC1=C(C)CN(C(=O)NCCc2ccc(OC)c(S(=O)(=O)NC(=S)NC)c2)C1=O [Example 1, 1-{2-Methoxy-5-[2-(3-ethyl-4-methyl-2-oxo-3-pyrrolinyl-1-carboxamido)-ethyl]-phenylsulfonyl-}3-methylthiourea]",2,119 ± 16,60 ± 22
"CCC1=C(C)CN(C(=O)NCCc2ccc(OC)c(S(=O)(=O)NC(=O)NC)c2)C1=O [Example 2, 1-{2-Methoxy-5-[2-(3-ethyl-4-methyl-2-oxo-3-pyrrolinyl-1-carboxamido)-ethyl]-phenylsulfonyl-}3-methylurea]",12,125,110
